Data as given in PMC6901109 (Bioorganic & medicinal chemistry letters, 2019).
One block for each molecule: values may come before it.

What was measured:
Cryptococcus spp. = assay: Antifungal activity against Cryptococcus spp.; assay type: cell-based
HLM half-life = assay type: in vitro ADME; details: human, liver microsomes
HepG2 = HepG2 viability; assay type: cell-based; details: at a concentration of 3 μM
PigW = biological target: T1, PigW (Homo sapiens, UniProt Q7Z7B1); assay: PigW assay; assay type: biochemical
T1 sequence (Q7Z7B1 1-504): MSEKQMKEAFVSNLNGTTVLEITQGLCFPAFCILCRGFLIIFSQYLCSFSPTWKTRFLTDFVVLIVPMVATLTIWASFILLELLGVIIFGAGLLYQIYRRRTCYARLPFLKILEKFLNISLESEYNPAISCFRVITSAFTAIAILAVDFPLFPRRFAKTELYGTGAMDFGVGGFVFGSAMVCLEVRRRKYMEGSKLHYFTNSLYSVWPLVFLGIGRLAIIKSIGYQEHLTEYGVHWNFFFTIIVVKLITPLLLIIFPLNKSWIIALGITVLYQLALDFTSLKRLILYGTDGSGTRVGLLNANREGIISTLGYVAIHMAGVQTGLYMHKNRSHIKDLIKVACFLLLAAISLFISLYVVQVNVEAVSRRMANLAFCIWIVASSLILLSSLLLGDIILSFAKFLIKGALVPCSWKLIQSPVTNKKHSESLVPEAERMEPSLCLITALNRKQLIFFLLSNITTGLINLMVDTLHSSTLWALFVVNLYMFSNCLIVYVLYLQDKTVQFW

Compound: Nc1ncccc1-c1cc(Cc2ccc(CNCc3ccn[nH]3)cc2)no1 [Compound 10b]
antifungal activity (in words) (Cryptococcus spp.): inactive

Compound: Cc1occc1COc1ccc(Cc2cc(-c3cccnc3N)on2)cn1 [Compound 13k]
fold weaker antifungal activity compared to the unsubstituted analog 13j (Cryptococcus spp.; ortho-methyl group, vs 13j): about 100 fold

half-life (HLM half-life): ~3 min
Compound: Nc1ncccc1-c1cc(Cc2ccc(Cc3ccco3)cc2)no1 [Compound 8d]

half-life (HLM half-life): 14 min
Compound: Nc1ncccc1-c1cc(Cc2ccc(Cc3ccc(F)o3)cc2)no1 [Compound 8e]

Compound: Nc1ncccc1-c1cc(Cc2ccc(Oc3ccccn3)cc2)no1 [Compound 12b]
HepG2 cytotoxicity (in words) (HepG2): significant liability

Compound: Cc1nccc(NCc2ccc(Cc3cc(-c4cccnc4N)on3)cc2)n1 [Compound 11b]
antifungal activity (in words) (Cryptococcus spp.): inactive

half-life (HLM half-life): 68.2 min
activity against the human homolog PigW (in words) (PigW): significant activity
Compound: Nc1ncccc1-c1cc(Cc2ccc(OCc3cccc(Cl)c3)nc2)no1 [Compound 13l]
